Laboratory results reported in patent US20110092505A1, “ORGANIC COMPOUNDS” (priority 2008, published 2011).
Like-named read-outs stand apart in the source and are kept apart here.

How the values were obtained:
protein kinase D3 (PKD3) = target: T1, protein kinase D3 (PKD3) (Homo sapiens, UniProt O94806); assay: PKD3 TR-FRET (LANCE) kinase assay; assay type: biochemical; settings: full length wild-type enzyme, 20 μM ATP, syntide-2 substrate; read-out: Inhibitory Activity PKD3
T1 construct: This assay is performed with full length wild-type enzyme that is purchased from Invitrogen; purchased Invitrogen
T1 sequence (O94806 1-890): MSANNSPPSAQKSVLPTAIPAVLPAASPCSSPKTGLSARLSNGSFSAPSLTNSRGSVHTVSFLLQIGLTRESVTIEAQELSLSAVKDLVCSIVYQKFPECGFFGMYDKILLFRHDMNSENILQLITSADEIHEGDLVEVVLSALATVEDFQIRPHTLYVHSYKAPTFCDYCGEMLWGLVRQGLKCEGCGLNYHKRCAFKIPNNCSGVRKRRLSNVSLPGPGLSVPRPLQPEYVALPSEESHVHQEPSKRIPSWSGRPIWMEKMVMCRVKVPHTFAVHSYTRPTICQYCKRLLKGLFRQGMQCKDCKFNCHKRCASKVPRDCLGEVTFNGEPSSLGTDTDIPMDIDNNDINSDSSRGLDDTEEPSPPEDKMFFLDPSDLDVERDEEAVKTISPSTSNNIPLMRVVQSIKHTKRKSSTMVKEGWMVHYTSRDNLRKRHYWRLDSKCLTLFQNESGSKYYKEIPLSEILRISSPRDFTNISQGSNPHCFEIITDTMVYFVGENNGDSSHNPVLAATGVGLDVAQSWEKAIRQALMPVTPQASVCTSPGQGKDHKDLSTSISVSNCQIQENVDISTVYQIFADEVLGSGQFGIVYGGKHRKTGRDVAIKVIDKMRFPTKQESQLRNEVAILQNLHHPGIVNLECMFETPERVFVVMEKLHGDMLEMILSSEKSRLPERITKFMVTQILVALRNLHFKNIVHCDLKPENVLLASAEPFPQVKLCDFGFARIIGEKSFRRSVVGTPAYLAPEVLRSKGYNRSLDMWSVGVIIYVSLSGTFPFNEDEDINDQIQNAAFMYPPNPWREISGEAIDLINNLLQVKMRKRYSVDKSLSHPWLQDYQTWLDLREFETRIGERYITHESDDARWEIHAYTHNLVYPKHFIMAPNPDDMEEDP
Source text: The assay to measure protein kinase D3 (PKD3) activity is a time-resolved fluorescence resonance transfer (TR-FRET) assay using PerkinElmer's LANCE™ technology. In this case, a biotinylated syntide-2 peptide is used as the substrate in this reaction. Phosphorylation of the syntide-2 substrate is detected by a specific antibody that recognizes the phosphorylated peptide. A second fluorophore, APC, is conjugated to streptavidin that binds the biotinylated syntide-2 peptide. […] Therefore, when the europium labeled secondary antibody binds on the phosphorylated peptide, it is brought into close contact with the APC and excites this fluorophore.
This assay is performed with full length wild-type enzyme that is purchased from Invitrogen. The reaction buffer consists of 35 mM Tris-HCl pH7.5, 5 mM MgCl2, 0.02% Tween-20, 20 μM ATP, 1 mM DTT and 0.2 μg/mL PKD3 enzyme. The enzyme reaction is initiated by the addition of 2 μM syntide-2 peptide substrate and the reaction carried out for 50 minutes at room temperature. The reaction is stopped by a stop/detection buffer consisting of 50 mM EDTA, 0.18 mg/mL rabbit polyclonal anti-phospho Syntide-2 antibody, 0.5 nM europium labeled anti-rabbit IgG and 10 nM streptavidin conjugated APC. After a one hour incubation with the stop/detection buffer, the reaction is read on an Envision 2100 Reader using a LANCE™ Eu/APC dual protocol. […] IC50 values are calculated using an Activity Base (IDBS) software program.

[1] = system: agonist-dependent nuclear export of HDAC5; assay: HDAC5 nuclear export assay (GFP-HDAC5, Cellomics imaging); assay type: cell-based; settings: Rattus norvegicus, Ventricular myocyte, 2 h, read-out: Inhibitory Activity HDAC
Procedure: Compounds are evaluated in the HDAC5 nuclear export assay, a 384-well plate-based assay that enables high throughput screening (HTS) to identify small molecules that block agonist-dependent nuclear export of HDAC5. […] Neonatal rat ventricular myocytes (NRVMs) are infected with GFP-HDAC5 encoding virus and plated on gelatin-coated 384-well dishes. […] Following two hours of stimulation, cells are fixed and GFP-HDAC5 localization quantified using the Cellomics system, which provides a read-out of relative fluorescence intensity in the cytoplasmic versus nuclear compartment.

[2] = neonatal rat ventricular myocytes, PGF2α stimulation, two hours

Structure (SMILES)	IC50 (protein kinase D3 (PKD3))	IC50 [1, 2]	IC50 [1]
COC(=O)c1ccc(-c2ccnc(NC3CCCCC3)c2)nc1N1CCNCC1 [2′-Cyclohexylamino-6-piperazin-1-yl-[2,4′]bipyridinyl-5-carboxylic acid methyl ester]	166 nM	> 1000 nM	
NC(=O)c1cc(-c2ccnc(NCCc3ccc(O)cc3)c2)nc(N2CCNCC2)c1 [2′-[2-(4-Hydroxyphenyl)ethylamino]-6-piperazin-1-yl-[2,4′]bipyridinyl-4-carboxylic acid amide]	2 nM		
c1cc(-c2cc(-c3nnco3)cc(N3CCNCC3)n2)cc(NC2CCCCC2)n1 [Cyclohexyl-(4-[1,3,4]oxadiazol-2-yl-6-piperazin-1-yl-[2,4′]bipyridinyl-2′-yl)-amine]	14 nM	126 nM	
FC(F)(F)c1cc(-c2ccnc(NC3CCCCC3)c2)nc(N2CCNCC2)c1 [Cyclohexyl-(6-piperazin-1-yl-4-trifluoromethyl-[2,4′]bipyridinyl-2′-yl)amine]	13 nM		342 nM
Nc1cc(-c2ccnc(NC3CCCCC3)c2)nc(N2CCNCC2)c1 [N*2′*-Cyclohexyl-6-piperazin-1-yl-[2,4′]bipyridinyl-4,2′-diamine]	38 nM	421 nM	

More lines, main results first:

IC50 (protein kinase D3 (PKD3))	IC50 [1, 2]	Structure (SMILES)	IC50 [1]
31 nM		NC(=O)c1cc(-c2ccnc(NCc3ccccc3Cl)c2)nc(N2CCNCC2)c1 [2′-(2-Chlorobenzylamino-6-piperazin-1-yl-[2,4′]bipyridinyl-4-carboxylic acid amide]	
20 nM	616 nM	NC(=O)c1cc(-c2ccnc(NC3CCCCC3)c2)nc(N2CCN3CCC[C@@H]3C2)c1 [2′-Cyclohexylamino-6-(R)-hexahydro-pyrrolo[1,2-a]pyrazin-2-yl-[2,4′]bipyridinyl-4-carboxylic acid amide]	
114 nM	> 1000 nM	N#CCNC(=O)c1ccc(-c2ccnc(NC3CCCCC3)c2)nc1N1CCNCC1 [2′-Cyclohexylamino-6-piperazin-1-yl-[2,4′]bipyridinyl-5-carbonxylic acid cyanomethyl-amide]	
74 nM	> 1000 nM	O=C1NCc2c1cc(-c1ccnc(NC3CCCCC3)c1)nc2N1CCn2cnnc2C1 [6-(2-Cyclohexylamino-pyridin-4yl)-4-(5,6-dihydro-8H-[1,2,4]triazolo[4,3-a]pyrazin-7-yl)-2,3-dihydro-pyrrolo[3,4-c]pyridin-1-one]	
85 nM	> 1000 nM	CS(=O)(=O)c1cc(-c2ccnc(NC3CCCCC3)c2)nc(N2CCNCC2)c1 [Cyclohexyl-(4-methanesulfonyl-6-piperazin-1-yl-[2,4′]bipyridinyl-2′-yl)-amine]	
5 nM	235 nM	O=[N+]([O-])c1cc(-c2ccnc(NC3CCCCC3)c2)nc(N2CCNCC2)c1 [Cyclohexyl-(4-nitro-6-piperazin-1-yl-[2,4′]bipyridinyl-2′-yl)-amine]	
252 nM	423 nM	Fc1ccc(Nc2cc(-c3ccnc(NC4CCCCC4)c3)nc(N3CCNCC3)c2)cc1 [N*2′*-Cyclohexyl-N*4*-(4-fluoro-phenyl)-6-piperazin-1-yl-[2,4′]bipyridinyl-4,2′-diamine]	
